# Source: US4481201A, “Pharmaceutical composition containing N,N^3 -di-(β-bromopropionyl)-N^1,N^2 -dispirotripiperazinium dichloride” (Vsesojuzny Nauchno-Issledovatelsky Khimoko-Farmasevtichesky …, priority 1981, dated 1984)
# “Also recorded” adds a separate entry of the source. Where two headings read alike, the source gives them in different places.
# Columns and labels:
# [1] = Toxicity on single and repeated administration to mice; format: in vivo; settings: for MTD / LD50: mouse, in vivo; for MTD: read-out: MTD; for Ik index of toxic effect cumulation: intraperitoneal administration; for LD50: read-out: DL50 (average lethal dose)
# Protocol: (3) acute toxicity of the compounds upon a single and repeated administration to white noninbred mice places into standard cages with 8 animals in each.
# In the investigation of toxic properties of the compounds according to the present invention there has been determined the absolutely lethal dose (DL95), average lethal dose (DL50) and MTD. For compounds 1 and 2 there were determined DL95 and DL50 on healthy white mice with the body mass of 18-21 g at a single and repeated (once a day, daily for 7 days) intraperitoneal administration.
# [2] = Solubility; format: physicochemical
# Protocol: (§1) The compounds of the general formula (I), wherein X represents Cl^- (compound 1), Br^- (compound 2) are well-soluble in an isotonic solution of sodium chloride and they are administered intraperitoneally. The doses of the compounds have been calculated in mg per kg of the animal bodyweight.
# To a mixture of 3 g of N^1,N^2 -dispirotripiperazinium dichloride, 1.5 g of lithium hydroxide, 1 ml of water and 10 ml of ether a solution of 5.2 g of β-bromopropionic acid chlorid in 5 ml of ether is added under vigorous stirring and at a temperature of 5° to 10° C. The reaction mass is stirred for 2 hours at the temperature of 15° C. The residue is filtered off, dissolved in 10 ml of water; the resulting aqueous solution is poured in 100 ml of methanol.
# [3] = system: Ienssen's sarcoma; assay: Growth of graft Ienssen sarcoma in rats; format: in vivo
# Description: (§2) The antitumor activity has been studied on white rats weighing 110-130 g, as well as on white noninbred and inbred mice weighing 17-21 g with ligated tumors. The treatment is started 5-7 days transplanting of solid tumors and the following day after the transplanting of leukotic strains. Use has been made of the following transplantable strains of the tumors:
# (§3) (1) rats: Ienssen's sarcoma, sarcoma 45, sarcoma M-1, sarcoma 536;
# as §1
# [4] = system: sarcoma M-1; assay: Growth of graft sarcoma M-1 in rats; format: in vivo; settings: rats, 85 mg/kg per os, 6 injections, one experiment
# Description: as §2, §3, §1
# [5] = system: sarcoma 180; assay: Growth of graft sarcoma 180 in mice; format: in vivo, noninbred white mice
# Description: as §2
# (2) noninbred white mice: sarcoma 180, sarcoma AK, sarcoma 37, carcinoma HK;
# as §1
# [6] = system: leukemia La; assay: Life span of mice with transplantable leukemia La; format: in vivo, inbred mice; settings: mice with transplantable leukemia La
# Description: as §2
# (§4) (3) inbred mice: leukemia La, leukemia L1210 and P-388.
# (§5) The activity of compounds relative to leukosis has been assessed by the life span (It) of treated animals as compared to the control ones. It --index of suppression of leukosis development is calculated by the formula: [formula]
# [7] = system: sarcoma 536; assay: Growth of graft sarcoma 536 in rats; format: in vivo; design: key to tumor growth suppression class, Sarcoma 536: +++: tumor growth suppression by 95-100%; ++: tumor growth suppression by 80-95%; +: tumor growth suppression by 60-80%; tumor growth suppression by 30-60%; 0: no effect; settings: for tumor growth suppression class, Sarcoma 536: rats
# Description: as §2, §3, §1
# [8] = Withdrawal of radioactivity from the rats' organism; format: in vivo; design: concentration or dose not given beside the values; settings: 24 hours after intravenous administration, C^14-labeled
# Description: (§6) In the case of administration of the preparation according to the present invention labeled with C^14, a higher level of radioactivity in blood is observed than in the case of prospidin labeled with C^14. A higher rate of accumulation of the preparation according to the present invention as compared to prospidin is observed in larynx, windpipe, bronchi, bone marrow, tumor and thyroid gland. The preparation according to the present invention labeled with C^14 is withdrawn from the organism within 24 hours after the intravenous administration mainly with urine, while C^14 --labeled prospidin is retained in the organism for a longer period.
# [9] = Distribution of C^14-labeled preparation within organs and tissues of rats with sarcoma M-1; format: in vivo; settings: rats with sarcoma M-1, intravenous
# Description: Furthermore, the particular distribution of the preparation according to the present invention within organs and tissues should also be noted.
# as §6
# [10] = system: leukemia P-388; assay: Life span of mice with transplantable leukemia P-388; format: in vivo, inbred mice; settings: mice with transplantable leukemia P-388
# Description: as §2, §4, §5
# [11] = system: transplantable leukemia; assay: Activity relative to leukoses of inbred mice (overall); format: in vivo
# Description: (2) activity of the compounds relative to leukoses of inbred mice;
# as §2, §4, §5
# [12] = system: sarcoma 45; assay: Growth of graft sarcoma 45 in rats; format: in vivo; settings: rats
# Description: as §2, §3, §1
# [13] = system: leukemia L1210; assay: Life span of mice with transplantable leukemia L1210; format: in vivo, inbred mice; settings: mice with transplantable leukemia L1210
# Description: as §2, §4, §5
# [14] = mice, single intraperitoneal administration
# [15] = ip, mice, single intraperitoneal administration
# [16] = rats, per os, 145 mg/kg, 7 injections
smiles,measurement,setting,value
O=C(CCBr)N1CC[N+]2(CC1)CC[N+]1(CCN(C(=O)CCBr)CC1)CC2 [Compound 3],MTD,"[1]; po, repeated administration, suspension per os",83 mg/kg
same,solubility in water,[2],sparingly soluble
same,"It, % tumor growth suppression index","[3]; rats, 83 mg/kg per os (MTD), 7 injections, one experiment",50%
same,"Change in the animal body weight, test","[3]; rats, 83 mg/kg per os, 7 injections, one experiment",-7 g
same,"Change in the animal body weight, test",[4],+1 g
same,suppression of sarcoma 180 growth,"[5]; mice, per os, at MTD (dose not given)",35
"CN(C)c1nc(NP(=O)(N2CC2)N2CC2)c2c(ncn2C)n1 [Phopurine, 2-dimethylamino-6-diethyleneimido-phosphamido-7-methylpurine, reference compound]","It, % index of suppression of leukosis development",[6],204%
same,Life span,[6],22.5 ± 3.4 days
same,Ik index of toxic effect cumulation,[1]; mice,12
same,DL95 (absolutely lethal dose),[1]; [14],430 mg/kg
same,LD50,[1]; [15],280 mg/kg
same,MTD,"[1]; ip, repeated intraperitoneal administration",120 mg/kg
same,slowing of the growth of sarcoma 180,[5]; dose not given,36%
same,"tumor growth suppression class, Sarcoma 180",[5]; mice,+ (tumor growth suppression by 60-80%)
same,effect on the growth of sarcoma 536,[7]; dose not given,does not affect the growth
same,"tumor growth suppression class, Sarcoma 536",[7],0
"OC(CCl)CN1CC[N+]2(CC1)CC[N+]1(CCN(CC(O)CCl)CC1)CC2 (stereo not drawn) [Prospidin, 3,12-diaza-6,9-diazaniumdispiro-[5,2,5,2]-hexadecane-3,12-bis-(3-chloro-2-hydroxypropyl)-dichloride, reference compound]","Withdrawal of radioactivity, Feces",[8],7.0%
same,"Withdrawal of radioactivity, Total",[8],75.0%
same,"Withdrawal of radioactivity, Urina",[8],68.0%
same,"It, % index of suppression of leukosis development",[6],0%
same,Life span,[6],6.6 ± 0 days
same,Ik index of toxic effect cumulation,[1]; mice,58
same,DL95 (absolutely lethal dose),"[1]; mice, repeated intraperitoneal administration (once a day, daily for 7 days)",250 mg/kg
same,DL50 (average lethal dose),[1]; [14],"1,000 mg/kg"
same,DL95 (absolutely lethal dose),[1]; [14],1200 mg/kg
same,LD50,[1]; [15],1000 mg/kg
same,"Coefficient of differential accumulation, Blood",[9]; 15 min,0.4
same,"Coefficient of differential accumulation, Bone marrow",[9]; 15 min,0.8
same,"Coefficient of differential accumulation, Bronchi",[9]; 15 min,2.16
same,"Coefficient of differential accumulation, Hypophysis",[9]; 15 min,2.4
same,"Coefficient of differential accumulation, Kidneys",[9]; 15 min,3.34
same,"Coefficient of differential accumulation, Larynx",[9]; 15 min,0.42
same,"Coefficient of differential accumulation, Liver",[9]; 15 min,1.43
same,"Coefficient of differential accumulation, Lungs",[9]; 15 min,1.54
same,"Coefficient of differential accumulation, Lymphonodes",[9]; 15 min,0.57
same,"Coefficient of differential accumulation, Spleen",[9]; 15 min,0.43
same,"Coefficient of differential accumulation, Thymus gland",[9]; 15 min,0.16
same,"Coefficient of differential accumulation, Tumor",[9]; 15 min,0.65
same,"Coefficient of differential accumulation, Tyroid gland",[9]; 15 min,1.2
same,"Coefficient of differential accumulation, Windpipe",[9]; 15 min,0.38
same,"Coefficient of differential accumulation, Blood",[9]; 30 min,0.1
same,"Coefficient of differential accumulation, Bone marrow",[9]; 30 min,0.6
same,"Coefficient of differential accumulation, Bronchi",[9]; 30 min,0.82
same,"Coefficient of differential accumulation, Hypophysis",[9]; 30 min,1.65
same,"Coefficient of differential accumulation, Kidneys",[9]; 30 min,0.67
same,"Coefficient of differential accumulation, Larynx",[9]; 30 min,0.32
same,"Coefficient of differential accumulation, Liver",[9]; 30 min,0.75
same,"Coefficient of differential accumulation, Lungs",[9]; 30 min,0.45
same,"Coefficient of differential accumulation, Lymphonodes",[9]; 30 min,0.48
same,"Coefficient of differential accumulation, Spleen",[9]; 30 min,0.21
same,"Coefficient of differential accumulation, Thymus gland",[9]; 30 min,0.06
same,"Coefficient of differential accumulation, Tumor",[9]; 30 min,0.37
same,"Coefficient of differential accumulation, Tyroid gland",[9]; 30 min,1.06
same,"Coefficient of differential accumulation, Windpipe",[9]; 30 min,0.21
same,"Coefficient of differential accumulation, Blood",[9]; 60 min,0.07
same,"Coefficient of differential accumulation, Bone marrow",[9]; 60 min,0.52
same,"Coefficient of differential accumulation, Bronchi",[9]; 60 min,0.5
same,"Coefficient of differential accumulation, Hypophysis",[9]; 60 min,1.47
same,"Coefficient of differential accumulation, Kidneys",[9]; 60 min,0.56
same,"Coefficient of differential accumulation, Larynx",[9]; 60 min,0.14
same,"Coefficient of differential accumulation, Liver",[9]; 60 min,0.67
same,"Coefficient of differential accumulation, Lungs",[9]; 60 min,0.2
same,"Coefficient of differential accumulation, Lymphonodes",[9]; 60 min,0.14
same,"Coefficient of differential accumulation, Spleen",[9]; 60 min,0.11
same,"Coefficient of differential accumulation, Thymus gland",[9]; 60 min,0.05
same,"Coefficient of differential accumulation, Tumor",[9]; 60 min,0.3
same,"Coefficient of differential accumulation, Tyroid gland",[9]; 60 min,0.75
same,"Coefficient of differential accumulation, Windpipe",[9]; 60 min,0.1
same,"Coefficient of differential accumulation, Blood",[9]; 24 hours,0.01
same,"Coefficient of differential accumulation, Bone marrow",[9]; 24 hours,0.18
same,"Coefficient of differential accumulation, Bronchi",[9]; 24 hours,0.25
same,"Coefficient of differential accumulation, Hypophysis",[9]; 24 hours,0.55
same,"Coefficient of differential accumulation, Kidneys",[9]; 24 hours,0.15
same,"Coefficient of differential accumulation, Larynx",[9]; 24 hours,0.05
same,"Coefficient of differential accumulation, Liver",[9]; 24 hours,0.13
same,"Coefficient of differential accumulation, Lungs",[9]; 24 hours,0.06
same,"Coefficient of differential accumulation, Lymphonodes",[9]; 24 hours,0.04
same,"Coefficient of differential accumulation, Spleen",[9]; 24 hours,0.06
same,"Coefficient of differential accumulation, Thymus gland",[9]; 24 hours,0.02
same,"Coefficient of differential accumulation, Tumor",[9]; 24 hours,0.07
same,"Coefficient of differential accumulation, Tyroid gland",[9]; 24 hours,0.22
same,"Coefficient of differential accumulation, Windpipe",[9]; 24 hours,0.07
same,"It, % index of suppression of leukosis development",[10],50%
same,Life span,[10],14.8 ± 0.3 days
same,effect on transplantable leukemia in mice,[11],does not affect the development of leukemiae; also recorded: does not provide any effect
same,"tumor growth suppression class, Sarcoma 45",[12],++ (tumor growth suppression by 80-95%)
same,Ch/T chemotherapeutical index (ratio of MTD to minimum effective dose),[3]; Ienssen sarcoma,27
same,"Change in the bodyweight of animals, test",[3]; [16],-9 g
same,"It, %",[3]; [16],+30%
same,"It, % index of suppression of leukosis development",[13],0%
same,Life span,[13],8.1 ± 0.1 days
same,"tumor growth suppression class, Sarcoma 180",[5]; mice,++ (tumor growth suppression by 80-95%)
same,"tumor growth suppression class, Sarcoma 536",[7],++ (tumor growth suppression by 80-95%)
